According to publication PMC6396024, “Artemin and an Artemin-Derived Peptide, Artefin, Induce Neuronal Survival, and Differentiation Through Ret and NCAM” (Frontiers in Molecular Neuroscience, 2019):
Ends that are not written are not given here.

Key:
[1] = test system: RET; cerebellar granule neurons (CGNs); test: Neurite outgrowth in CGNs transfected with dominant negative RET (dnRET); format: cell-based, Wistar rat; conditions: 24 h, P2-d 8 μg/ml, ARTN 0.21 nM, artefin 1.4 μM
Procedure: (§1) Cerebellar granule neurons (CGNs) were prepared from 7-day-old Wistar rat pups (Charles River Laboratories, Sulzfeld, Germany) as previously described ([Schousboe et al., 1989]). Briefly, pups were decapitated, and the cerebellum was removed and cleared from blood vessels and meninges in ice-cold modified Krebs-Ringer buffer. The cerebellum was dissociated by chopping and trypsinization. Cells were washed in Krebs-Ringer buffer containing DNAse I (Sigma, St. Louis, MO, United States) and soybean trypsin inhibitor (Sigma) to stop trypsinization, and the remaining tissue pieces were pelleted by centrifugation. Cells were then washed in Krebs-Ringer buffer containing Ca^2+ and Mg^2+ and re-suspended in appropriate Neurobasal^TM medium (Invitrogen, Taastrup, Denmark) with supplements depending on the experiment.
(§2) To evaluate the involvement of NCAM and RET in neurite outgrowth induced by either ARTN or artefin, CGNs (3 × 10^6 per transfection) were transfected with 3 μg DNA using a Nucleofector^TM 2b device and a Rat Neuron Nucleofector Kit (Amaxa, Inc., Gaithersburg, MD, United States). A kinase-deleted dominant negative RET insert was obtained by direct PCR using a commercially available clone (IRAKp961P02132Q; RZPD, Berlin, Germany) encoding full-length mouse RET coding sequence 586–3807 nt. as template. The upper primer […] contained a NheI restriction site and Kozak sequence, and the lower primer […] encoded Streptag II and NotI restriction sites. The dominant negative RET insert and the pcDNA5/FRT expression vector containing the Flp-In system were cut with NheI and NotI restriction enzymes, purified, ligated using the Rapid DNA Ligation Kit (Roche, Basel, Switzerland), and transfected into One Shot TOP10 E. coli (Invitrogen, Taastrup, Denmark). E. coli colonies containing the dominant negative RET insert were identified by PCR, and one insert-positive colony was used for plasmid purification. The identity of the purified plasmid was verified by restriction cutting and sequencing of the insert. For NCAM knock down, we used a pENTR vector containing the shRNA expression cassette for NCAM knock down ([Hansen et al., 2007]). An empty vector was used as a control. To identify transfected neurons, all transfections were performed as co-transfections with 0.5 μg pEGFP-N1, an expression vector encoding the enhanced variant of green fluorescent protein (GFP; Clontech, Palo Alto, CA, United States). Transfected CGNs were seeded in Neurobasal^TM-A medium supplemented with 2% (v/v) B27, 5% (v/v) FCS, and 2 mM Glutamax at a density of 1 × 10^5 cells/cm^2.
(§3) To estimate neurite outgrowth, neurons were fixated 24 h after stimulation and stained with rabbit anti-growth-associated-protein-43 (GAP-43) antibody (Chemicon International, Inc., Temecula, CA, United States) or anti-GFP antibody (for transfection experiment) overnight at 4°C followed by incubation with secondary Alexa-conjugated goat anti-rabbit antibodies (Invitrogen, Taastrup, Denmark). In case of experiments with plasmid transfection, the transfection efficiency was ca. 20% of total cells and the neurite outgrowth was evaluated only in GFP-positive, i.e., transfected, cells. For representative pictures, cells were additionally co-stained with Hoechst 33258.
(§4) Computer-assisted fluorescent microscopy was performed using a Nikon Diaphot 300 inverted microscope (Nikon) equipped with a Nikon Plan 20× objective and coupled to a video camera (Grundig Electronics, Germany). For each condition in each experiment, including the experiment with transfections, images of approximately 200 cells were recorded in systematic series of fields of view, and neurite outgrowth was quantified using a stereological approach as previously described ([Rønn et al., 2000]).
(§5) FIGURE 7 Neuritogenic effect of ARTN and artefin in (A) dominant negative RET or (B) knock down NCAM-expressing CGNs. […]

[2] = test system: NCAM; cerebellar granule neurons (CGNs); test: Neurite outgrowth in CGNs with NCAM knock down (NCAM shRNA); format: cell-based, Wistar rat; conditions: 24 h, P2-d 8 μg/ml, ARTN 0.21 nM, artefin 1.4 μM
Procedure: as §1, §2, §3, §4, §5

[3] = test system: FGFR; cerebellar granule neurons (CGNs); test: Neurite outgrowth in CGNs with FGFR-inhibitor SU5402; format: cell-based, Wistar rat; conditions: p < 0.01
Procedure: as §1
Cerebellar granule neurons CGNs were re-suspended in Neurobasal^TM medium supplemented with 2% (v/v) B27, 0.5% (v/v) glutamax, 100 U/ml penicillin, 100 μg/ml streptomycin, 0.4% (w/v) BSA, and 20 mM HEPES and were seeded in 8-well LabTek Permanox chamber slides (Nunc) at a density of 1 × 10^4 cells/cm^2. Various concentrations of ARTN, artefin, scrambled artefin, or reversed artefin were added to neurons immediately after seeding. For the RET inhibition assay, the inhibitory goat anti-mouse RET antibody (4.1 μg/ml; R&D systems, Abingdon, United Kingdom) or control goat IgG (4.1 μg/ml; Santa Cruz Biotechnology, Dallas, TX, United States) were added to neurons 1 h before stimulation with ARTN (0.042 nM) […]. For the competition assay between growth factor and mimetic peptide, a combination of ARTN (2.1 nM) and artefin (4.2 μM) was added to the cells immediately after seeding. […]
as §3, with “For representative pictures, cells were additionally co-stained with Hoechst 33258.” left out
as §4, with “2000]). […]” for “2000]).”

[4] = test system: cerebellar granule neurons (CGNs); test: Neurite outgrowth assay in CGNs; format: cell-based, Wistar rat; conditions: 24 h; ARTN 0.013–2.1 nM; artefin 0.16–37.9 μM; one-way ANOVA
Procedure: as §1
Cerebellar granule neurons CGNs were re-suspended in Neurobasal^TM medium supplemented with 2% (v/v) B27, 0.5% (v/v) glutamax, 100 U/ml penicillin, 100 μg/ml streptomycin, 0.4% (w/v) BSA, and 20 mM HEPES and were seeded in 8-well LabTek Permanox chamber slides (Nunc) at a density of 1 × 10^4 cells/cm^2. Various concentrations of ARTN, artefin, scrambled artefin, or reversed artefin were added to neurons immediately after seeding. For the RET inhibition assay, the inhibitory goat anti-mouse RET antibody (4.1 μg/ml; R&D systems, Abingdon, United Kingdom) or control goat IgG (4.1 μg/ml; Santa Cruz Biotechnology, Dallas, TX, United States) were added to neurons 1 h before stimulation with ARTN (0.042 nM) […]. For the competition assay between growth factor and mimetic peptide, a combination of ARTN (2.1 nM) and artefin (4.2 μM) was added to the cells immediately after seeding. To inhibit Fibroblast growth factor receptor (FGFR) pharmacologically, inhibitor of FGFR, SU5402 (Sigma), was added to the growth medium in serial dilutions of 20, 40, and 80 μM immediately after plating of CGNs, followed by addition of either P2-d (8 μg/ml), ARTN (0.21 nM), or artefin (1.4 μM) 1 h after the plating.
as §3, §4
FIGURE 3 Neurite outgrowth induced by ARTN (A), artefin-dendrimer (B), and artefin-monomer (C) in CGNs. Cells were stimulated with ARTN (0.013, 0.042, 0.13, 0.42, and 2.1 nM) or artefin (0.16, 0.47, 1.4, 4.2, 12.6, and 37.9 μM) for 24 h. For the unstimulated control, the absolute length of neurites was 11.47 ± 1.5 μm. Results from four independent experiments are expressed as percentage of untreated control set to 100% and presented as mean ± SEM. The mean neurite outgrowth lengths were compared using one-way ANOVA for repeated measurements. The effect of individual concentrations of ARTN and artefin was compared to control using one-way ANOVA with Dunnett’s post-hoc test, ^∗p < 0.05; ^∗∗p < 0.01. […]

[5] = test system: cerebellar granule neurons (CGNs); test: Survival assay of CGNs induced to undergo apoptosis by potassium withdrawal; format: cell-based, Wistar rat; conditions: 50 ng/ml, 48 h, 5 mM KCl; p < 0.0001; positive control
Procedure: as §1
Cerebellar granule neurons were re-suspended in Neurobasal^TM-A medium supplemented with 2% (v/v) B27 (Invitrogen, Taastrup, Denmark), 0.5% (v/v) glutamax, 100 U/ml penicillin, 100 μg/ml streptomycin, and 40 mM KCl, and seeded at a density of 1 × 10^5 cells/well in 8-well LabTek Permanox chamber slides (Nunc, Roskilde, Denmark) coated with poly-L-lysine (10 μg/ml). To avoid proliferation of non-neuronal cells, cytosine-β-D-arabinofuranoside (Sigma) was added to cells 24 h after plating. CGNs were allowed to differentiate for 7 days in vitro (DIV) in the presence of 40 mM KCl before being induced to undergo apoptosis by changing the medium to one containing only 5 mM KCl (apoptotic medium) ([D’Mello et al., 1993]). At 7 DIV, cells were washed and stimulated with serially diluted ARTN or artefin diluted in the apoptotic medium. Three different controls were included; (1) cells grown in medium containing 40 mM KCl served as a positive control; (2) cells grown in medium containing 5 mM KCl served as a negative control; (3) cells grown in medium containing 5 mM KCl supplemented with 50 ng/ml insulin growth factor-1 (IGF-1) (Life Technology), a known anti-apoptotic factor for CGNs in this setup ([Galli et al., 1995]). After 48 h following the induction of apoptosis, cells were fixated in 4% formaldehyde for 30 min, and nuclear morphology was visualized with Hoechst 33258 staining (Invitrogen, Taastrup, Denmark) (Figure 2A). Images of cells were obtained using a Nikon Diaphot 200 fluorescent microscope equipped with a Nikon Plan 40× objective (Nikon, Tokyo, Japan) and coupled to a black-white video camera. Images of at least 1000 cells/well in different fields of view were analyzed, and the percentage of viable neurons was estimated as the ratio of live cells (non-pyknotic cells with dispersed chromatin) to the total number of neurons.
FIGURE 2 Effect of ARTN and artefin on survival of cerebellar granular neurons (CGNs) induced to undergo apoptosis. CGNs were differentiated for 7 days in the presence of 40 mM KCl before apoptosis was induced by potassium withdrawal. (A) Nuclear morphology of CGNs after Hoechst 33258 staining. […] Scale bar: 100 μm. Cells were grown for 48 h in media, containing 40 mM KCl, apoptotic medium (5 mM KCl) or apoptotic medium supplemented with 50 ng/ml IGF-1 (positive control) (B), serially diluted ARTN (C), or artefin (D). Each experiment was performed in the presence of the three controls (40 mM KCl, 5 mM KCl, and 5 mM KCl plus IGF-1), and the survival effect of the growth factor and the peptide was compared to its own apoptotic control (5 mM KCl). Results from the five experiments are expressed as percentage of 40 mM KCl control set at 100% and presented as mean ± SEM. The anti-apoptotic effect of ARTN and artefin was tested using Student’s paired t-test, where ^∗p < 0.05; ^∗∗p < 0.01; ^∗∗∗p < 0.001; ^∗∗∗∗p < 0.0001.

[6] = target: T1, recombinant human GFRα3/Fc (human, UniProt O60609 32-374); test: SPR; Biacore 2000, 25°C, HBS-EP (10 mM HEPES pH 7.4, 150 mM NaCl, 3 mM EDTA, 0.005% P20); ARTN (~2300 RU) or artefin (~1600 RU) amine-coupled on a CM4 chip; serially diluted GFRα3/Fc or NCAM Ig1–3 injected at 20 μl/min; 1:1 interaction model or steady-state affinity analysis; conditions: both partners purified
T1 construct: GDNF family receptor alpha-3 (GFRα3), human; Commercial Fc chimera; also called GFL receptor α3; source: bought: R&D Systems
T1 sequence (looked up): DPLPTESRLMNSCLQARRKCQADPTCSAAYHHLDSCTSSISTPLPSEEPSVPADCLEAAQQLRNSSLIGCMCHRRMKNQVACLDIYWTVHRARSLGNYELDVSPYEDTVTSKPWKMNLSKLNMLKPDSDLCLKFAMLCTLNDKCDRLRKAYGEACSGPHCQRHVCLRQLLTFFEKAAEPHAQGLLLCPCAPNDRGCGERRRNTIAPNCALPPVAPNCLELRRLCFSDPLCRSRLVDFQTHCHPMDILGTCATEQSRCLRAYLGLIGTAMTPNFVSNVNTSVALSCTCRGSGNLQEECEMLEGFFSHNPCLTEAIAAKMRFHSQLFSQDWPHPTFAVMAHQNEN

[7] = target: T2, recombinant rat NCAM Ig1–3 (rat, UniProt P13596 20-308); test: as above; conditions: both partners purified
T2 construct: neural cell adhesion molecule (NCAM), rat, Ig1–3 domains; also called NCAM Ig1–3 domain; source: recombinant, produced as described previously (Soroka et al., 2003)
T2 sequence (P13596 20-308): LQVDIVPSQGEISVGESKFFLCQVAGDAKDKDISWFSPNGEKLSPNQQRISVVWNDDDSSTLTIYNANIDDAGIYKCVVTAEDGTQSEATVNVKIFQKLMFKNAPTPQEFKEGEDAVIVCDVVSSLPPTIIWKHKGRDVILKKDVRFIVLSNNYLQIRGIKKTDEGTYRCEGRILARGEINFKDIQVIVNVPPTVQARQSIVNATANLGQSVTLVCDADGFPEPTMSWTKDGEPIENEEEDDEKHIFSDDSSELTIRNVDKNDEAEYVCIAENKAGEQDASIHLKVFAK

GRILARGEINFK [P2-d, reference compound]
neurite outgrowth in dnRET-transfected neurons ([1]; dnRET): significantly increased the level of neurite outgrowth in mock-transfected neurons as well as in neurons transfected with the vector encoding dnRET (p < 0.05 | neurite outgrowth in mock-transfected neurons ([1]; empty vector, versus control): significantly increased the level of neurite outgrowth in mock-transfected neurons | neurite outgrowth in NCAM knock down neurons ([2]; NCAM shRNA): eliminated in neurons transfected with NCAM shRNA (p < 0.01 | neurite outgrowth in mock-transfected neurons ([2]; empty vector, versus control): increased neurite outgrowth in mock-transfected neurons (p < 0.05) | neurite outgrowth with 80 μM FGFR inhibitor ([3]; P2-d 8 μg/ml with 80 μM inhibitor): significantly attenuated | neurite outgrowth in the absence of SU5402 ([3]; P2-d 8 μg/ml): promoted neurite outgrowth in the absence of SU5402 (p < 0.01)

RSPHDLSLASLLGAG [artefin in monomer form]
overall neuritogenic effect [4]: did not demonstrate any significant neurite outgrowth

IGF-1: insulin growth factor-1 (Life Technology), a known anti-apoptotic factor for CGNs [reference compound]
neuronal survival (rescue from apoptosis by potassium withdrawal) [5]: significantly increased the number of CGNs rescued from the apoptosis

B1: artefin, ARTN-derived peptide synthesized as a tetramer (dendrimer) on a lysine backbone (peptide)
peptide: RSPHDLSLASLLGAG
modifications: also: tetramer: four monomers coupled to a lysine backbone
notes: amino acids 166-180 of human ARTN (UniProt D3DPX9), heel region; also called artefin-dendrimer; artefin-d; source: synthetic peptide (Schafer-N, Copenhagen; solid-phase Fmoc chemistry)
Kd [6]: 2.9 nM | Kd [7]: 2800 nM
